According to US20140158233A1, “AEROSOL DELIVERY TO A MICROFLUIDIC DEVICE” (PRESIDENT AND FELLOWS OF HARVARD COLLEGE, priority 2011, published 2014):

Tested on: human alveolar epithelial cells (A549)
Test: Aerosol delivery of a model agent to cells in a lung-on-a-chip (cell uptake, time-course fluorescence images)
Format: cell-based
Conditions: 50 micromolar fluorescein sodium in isotonic PBS, nebulized droplets, flow ~20 mL/hr into top channel; confluent A549 monolayer at air interface; images 0-10 min (FIGS. 14A-14D)
From the text: In accordance with some embodiments described herein, an agent can be aerosolized and directed to a microfluidic channel for delivery of the agent to a cell. In some embodiments, the microfluidic channel can be present in a lung-on-a-chip device as described earlier. By way of example only, to evaluate efficacy of aerosol delivery to and/or deposition on a cell using one or more embodiments of the aerosol delivery device described herein, a monolayer of human alveolar epithelial cells (A549) was grown to confluence on the top side of a porous membrane of the lung-on-a-chip, for example, the one described in the International Patent Application WO 2010/009307, the content of which is incorporated herein by reference. In some embodiments, no cells were seeded on the bottom side of the membrane. […] In some embodiments, at least the top channel inlet port 1310 of the lung-on-a-chip 1300 can be modified to include an inertial impactor as described herein. […] The microchannel 142 (in fluid communication with the chamber 150) and the porous membrane 160 can be directly or indirectly connected to the top channel 1320 and the porous membrane 1340 of the lung-on-a-chip 1300. […]

cell uptake of aerosolized fluorescein after deposition on the cells: taken up by the cells
SMILES: O=C1OC2(c3ccc(O)cc3Oc3cc(O)ccc32)c2ccccc21 [fluorescein, fluorescein sodium]
